# Values of other authors in US8333959B2, “Ex-vivo application of solid microparticulate therapeutic agents” (Baxter International Inc., priority 2004, dated 2012).
# System: HIV-infected macrophages
structure (smiles),measurement,setting,value
CC(C)(C)NC(=O)[C@@H]1C[C@@H]2CCCC[C@@H]2CN1C[C@@H](O)[C@H](Cc1ccccc1)NC(=O)[C@H](CC(N)=O)NC(=O)c1ccc2ccccc2n1 [saquinavir],antiviral activity in HIV-infected macrophages,"HIV-infected macrophages, in vitro, solution vs nanoparticulate formulation",little antiviral activity
same,antiviral activity in chronically HIV-infected macrophages,"concentration of 100 nM, chronically HIV-infected macrophages",completely inactive
